From US6410558B1, “Fungicides for the control of take-all disease of plants” (Monsanto Technology LLC, priority 1991, dated 2002)

System: Gaeumannomyces graminis var. tritici (Ggt)
Test: In vitro Assay: mycelial growth of Ggt on minimal media agar plates containing test compound
Type: cell-based
Conditions: Gaeumannomyces graminis, dark, 19-20° C., 4 to 5 days, diameter of mycelial growth; for inhibition at 0.1 ppm: 0.1 ppm in minimal media agar, read-out: In vitro (ppm) 0.1, Percent Inhibition; for inhibition at 1 ppm: 1 ppm in minimal media agar, read-out: In vitro (ppm) 1, Percent Inhibition; for inhibition at 10 ppm: 10 ppm in minimal media agar, read-out: In vitro (ppm) 10, Percent Inhibition
Procedure: The test compounds (0.25 mL of an appropriate stock solution in acetone) are incorporated into 25 mL minimal media agar [(prepared by autoclaving a solution of 17.5 g Czapek Dox broth (Difco), 7.5 g purified agar or Bacto-agar (Difco), and 500 mL distilled/deionized water, and then adding 50 μL of 1 mg/mL thiamine hydrochloride and 50 μL of 1 mg/mL biotin in 5% ethanol] and plates are prepared.
Each plate is inoculated by placing in a triangular shape three 4-mm plugs of Gaeumannomyces graminis var. tritici (Ggt) grown on the minimal media agar described above. The plates are incubated in the dark at 19-20° C. for 4 to 5 days. The growth of the fungus is measured as the diameter of the mycelial growth. The result is expressed as Percent Inhibition, calculated as [1-[(mm growth on treated plate −4)/(mm growth on control plate −4)]]×100.

Structure (SMILES)	inhibition at 0.1 ppm [%]	inhibition at 1 ppm [%]	inhibition at 10 ppm [%]
C[Si](C)(C)c1cc(Cl)sc1C(=O)NCCCl [Example 264, 5-Chloro-N-(2-chloroethyl)-3-(trimethylsilyl)-2-thiophenecarboxamide]	2	88	100
CCNC(=O)c1cc(NC(=O)c2ccccc2)ccc1[Si](C)(C)C [Example 240, 5-(Benzoylamino)-N-ethyl-2-(trimethylsilyl)benzamide]	26	22	65
C=CCNC(=O)c1sc(Cl)cc1[Si](C)(C)C [Example 262, 5-Chloro-N-(2-propenyl)-3-(trimethylsilyl)-2-thiophenecarboxamide]	13	70	100
CCNC(=O)c1sc(C)cc1[Si](C)(C)C [Example 256, N-Ethyl-5-methyl-3-(trimethylsilyl)-2-thiophenecarboxamide]	< 0	< 0	100
CCNC(=O)c1c([Si](C)(C)C)ccc(C(C)=O)c1Cl [Example 243, 3-Acetyl-2-chloro-N-ethyl-6-(trimethylsilyl)benzamide]	23	10	83
C/C=C\NC(=O)c1c(Cl)cccc1[Si](C)(C)C [Example 112, (Z)-2-Chloro-N-1-propenyl-6-(trimethylsilyl)benzamide]	81	96	100
CCN(CC)C(=O)c1cccc(C)c1[Si](C)(C)C [Example 64, N,N-diethyl-3-methyl-2-(trimethylsilyl)benzamide]	20	14	31
CCN(C)C(=O)c1c(Cl)cccc1N(C)C(C)(C)C [Example 189, 2-Chloro-6-[(1,1-dimethylethyl)methylamino]-N-ethyl-N-methylbenzamide]	4	13	65
CCNC(=O)c1nc(Cl)sc1[Si](C)(C)C [Example 282, 2-Chloro-N-ethyl-5-(trimethylsilyl)-4-thiazolecarboxamide]	3	15	78
CCNC(=O)c1sc(C=O)cc1[Si](C)(C)C [Example 258, N-Ethyl-5-formyl-3-(trimethylsilyl)-2-thiophenecarboxamide]	19	19	42
C[Si](C)(C)c1cccc(Cl)c1C(=O)NC1CCCCC1 [Example 129, 2-Chloro-N-cyclohexyl-6-(trimethylsilyl)benzamide]	9	35	26
CC(C)NC(=O)NC(=O)c1c(Cl)cccc1[Si](C)(C)C [Example 173, 2-Chloro-N-(isopropylaminocarbonyl)-6-(trimethylsilyl)benzamide]	4	12	92
CCN(CC)C(=O)c1ccc(C)cc1[Si](C)(C)C [Example 58, N,N-Diethyl-4-methyl-2-(trimethylsilyl)benzamide]	13	6	55
CCN(CC)C(=O)c1c(C(=O)OC(C)C)ccc(F)c1[Si](C)(C)C [Example 43, 2-[(Diethylamino)carbonyl]-4-fluoro-3-(trimethylsilyl)benzoic acid, 1-methylethyl ester]	< 0	< 0	63
CCN(C(=O)c1c(Cl)cccc1[Si](C)(C)C)c1ccccc1 [Example 24, 2-Chloro-N-ethyl-N-phenyl-6-(trimethylsilyl)benzamide]	< 0	< 0	100
C#CC(C)(C)NC(=O)c1c(Cl)cccc1[Si](C)(C)C [Example 107, 2-Chloro-N-(1,1-dimethyl-2-propynyl)-6-(trimethylsilyl)benzamide]	< 0	< 0	24
CCNC(=O)c1c(F)cccc1CC(C)(C)C [Example 93, 2-(2,2-Dimethylpropyl)-N-ethyl-6-fluorobenzamide]	< 0	< 0	26
CCNC(=O)c1c([Si](C)(C)C)ccc(C#C[Si](C)(C)C)c1Cl [Example 276, 2-Chloro-N-ethyl-6-(trimethylsilyl)-3-[(trimethylsilyl)ethynyl]benzamide]	< 0	63	84

Structure (SMILES)	inhibition at 0.1 ppm [%]	inhibition at 1 ppm [%]	inhibition at 10 ppm [%]
C[Si](C)(C)c1cc(Cl)sc1C(=O)NCCO [Example 263, 5-Chloro-N-(2-hydroxyethyl)-3-trimethylsilyl-2-thiophenecarboxamide]	7	< 0	50
CCNC(=O)c1c([Si](C)(C)C)ccc(/C=C/[N+](=O)[O-])c1Cl [Example 241, 2-Chloro-N-ethyl-3-(2-(E)-nitro-ethenyl)-6-(trimethylsilyl)benzamide]	13	87	100
CCNC(=O)c1cnn(C)c1[Si](C)(C)C [Example 288, N-Ethyl-1-methyl-5-(trimethylsilyl)-1H-pyrazole-4-carboxamide]	< 0	< 0	53
CCN(CC=CC#CC(C)(C)C)C(=O)c1c(Cl)cccc1[Si](C)(C)C [Example 104, 2-Chloro-N-(6,6-dimethyl-2-hepten-4-ynyl)-N-ethyl-6-(trimethylsilyl)benzamide]	< 0	26	71
CCNC(=O)c1sc(SC)cc1[Si](C)(C)C [Example 261, N-Ethyl-5-(methylthio)-3-(trimethylsilyl)-2-thiophenecarboxamide]	14	25	78
CCN(CC)C(=O)c1c(C(F)F)cccc1[Si](C)(C)C [Example 97, 2-(Difluoromethyl)-N,N-diethyl-6-(trimethylsilyl)benzamide]	7	70	100
CN(C)NC(=O)c1c([Si](C)(C)C)ccc(Cl)c1Cl [Example 205, 2,3-Dichloro-6-(trimethylsilyl)benzoic acid, 2,2-dimethylhydrazide]	5	47	81
CCNC(=O)c1c(-c2ccccc2)cccc1[Si](C)(C)C [Example 221, N-Ethyl-2-phenyl-6-(trimethylsilyl)benzamide]	15	46	85
C[Si](C)(C)c1cccc(Cl)c1C(=O)NCC#N [Example 142, 2-Chloro-N-(cyanomethyl)-6-(trimethylsilyl)benzamide]	< 0	< 0	59
CCNC(=O)c1cc(NC)ccc1[Si](C)(C)C [Example 275, N-Ethyl-5-(methylamino)-2-(trimethylsilyl)benzamide]	22	81	94
CCN(COC)C(=O)c1ccccc1[Si](C)(C)C [Example 50, N-Ethyl-N-(methoxymethyl)-2-(trimethylsilyl)benzamide]	3	10	20
CCN(CC)C(=O)c1cc(C)ccc1[Si](C)(C)C [Example 63, N,N-Diethyl-5-methyl-2-(trimethylsilyl)benzamide]	< 0	40	69
CCN(CC)C(=O)c1c(C=O)ccc(F)c1[Si](C)(C)C [Example 41, N,N-Diethyl-3-fluoro-6-formyl-2-(trimethylsilyl)benzamide]	24	21	52
CCNC(=O)c1c(Cl)ccc(N(C)C)c1[Si](C)(C)C [Example 237, 6-Chloro-3-(dimethylamino)-N-ethyl-2-(trimethylsilyl)benzamide]	44	93	96
CCNC(=O)c1c(F)cccc1C1(C)CCCC1 [Example 123, N-Ethyl-2-fluoro-6-(1-methylcyclopentyl)benzamide]	11	78	89
CCN(CC)C(=O)c1c(C)cc(C)cc1[Si](C)(C)C [Example 60, N,N-Diethyl-2,4-dimethyl-6-(trimethylsilyl)benzamide]	< 0	< 0	19
CCNC(=O)c1cc(N=C=S)ccc1[Si](C)(C)C [Example 245, N-Ethyl-5-isothiocyanato-2-(trimethylsilyl)benzamide]	50	100	100
